This is an account of results in US10806717B2, “Methods and compositions for improving cognitive function” (The Johns Hopkins University, priority 2013, dated 2020).

Data set [1] concerns Memory-impaired aged rats. Briefly: Radial arm maze task with 2-hr delay, acute brivaracetam or seletracetam. The class given is in vivo, rat. The settings on record: acute i.p. 0.0625-4 mg/kg, 30-40 min before test; repeated measures ANOVA: brivaracetam p=0.039, seletracetam p=0.009.
Data set [2] concerns aged-impaired (AI) rats. Kind of data set: Radial Arm Maze task with one-hour delay, levetiracetam and/or valproate. The class given is in vivo, rat. The settings on record: valproate on its own.
In data set [3] the test system is Memory-impaired aged rats. Conditions: cited from earlier work.
Data set [4] has as its system MAM-treated rats. Conditions: rat, in vivo; cited from earlier work.
Data set [5] relates to Memory-impaired aged rats. Kind of data set: Water maze probe test after chronic brivaracetam. It is filed as in vivo, rat. Conditions: brivaracetam 2 mg/kg/day by osmotic mini-pump. The method, then:
The radial arm maze experiments used acute administration of seletracetam (0-4 mg/kg), brivaracetam (0-4 mg/kg), or saline vehicle given by intraperitoneal injection (in a volume of 1 ml/kg) 30-40 min prior to test sessions. In the chronic treatment experiment, memory-impaired aged rats were implanted subcutaneously in the intrascapular region with osmotic mini-pumps (ALZET, Durect Corporation, Cupertino, Calif.) with brivaracetam (2 mg/kg/day) or saline vehicle starting two weeks prior to assessment in the water maze.
Rats were trained and tested in a novel water maze environment to assess the effect of drug treatment. The water maze used here was housed in a different building and was surrounded by curtains with a novel set of patterns relative to the maze used for initial assessment of cognitive status. The training protocol consisted of 6 trials per day for 2 days to locate a submerged escape platform. On each trial, a rat was released in the maze from one of four equally spaced starting positions around the perimeter of the pool. The starting position varied from trial to trial. […] The rat was then removed from the platform and placed in a holding cage for another 40 s before the next trial. Approximately 24 hr after the last training trial, a probe test in the absence of the escape platform was given to assess spatial memory.

Data set [6] relates to MAM-treated rats. Conditions: cited from earlier work.

For the molecule `CC[C@@H](C(N)=O)N1C[C@H](C=C(F)F)CC1=O` [seletracetam], in data set [1], the “number of errors in the retention phase after 2-hr delay” value is listed as “significant effect as a function of dose”.
As for `CCCC(CCC)C(=O)O` [valproate, 2-propylpentanoate], the “effective in reducing the number of errors” value in data set [2] (25 mg/kg or 50 mg/kg subcutaneous) is given as “not”; in data set [2] (100 mg/kg subcutaneous), “effective”. The “treatment of cognitive impairment” value in data set [3] (50 mg/kg/day, chronic subcutaneous administration) is recorded as “not effective”. Also, in data set [3] (100 mg/kg/day, chronic subcutaneous administration), the “performance in a memory test” value was “significantly improved”. The “blood total valproate level” value in data set [3] (rat, in vivo) was 10 μg/ml plasma.
Turning to `NC1=N[C@H](O)[C@H]2[C@H]3O[C@]4(O)O[C@@H]([C@@H](O)[C@@]2(N1)[C@@H]4O)[C@]3(O)CO` [tetrodotoxin], in data set [4], the “augmented amphetamine-induced locomotor behavior” value is “normalized” and the “elevated DA neuron population activity” value was “completely reversed”.
Take `CCC[C@@H]1CC(=O)N([C@@H](CC)C(N)=O)C1` [brivaracetam]: the “spatial bias for the target quadrant compared to the other quadrants” value in data set [5] (14 days, n=3/group, t(2)=10.000, p=0.010) is reported as “significant spatial bias”. For the same molecule, in data set [5] (t(4)=3.109, p=0.036), the “time in the target annulus compared to vehicle-treated rats” value is “significantly more time”. The “time in the target quadrant compared to vehicle-treated rats” value in data set [5] (t(4)=3.881, p=0.018) was “significantly more time”. Besides, the “number of errors in the retention phase after 2-hr delay” value in data set [1] is on record as “significant effect as a function of dose”.
With `C#Cc1ccc2c(c1)C(c1ccccc1F)=N[C@H](C)c1c(C(=O)OCC)ncn1-2` [SH-053-2′F—R—CH3], in data set [6] (MAM rats, systemic or infused into ventral HPC, to levels of saline-treated rats), the “number of spontaneously active DA neurons in the ventral tegmental area (VTA)” value is reported as “reduces”. Besides, the “increased locomotor response to amphetamine” value in data set [6] (MAM-treated rats) was “reduced”. Further, the “cortical-evoked responses of HPC neurons” value in data set [6] (saline-treated and MAM-treated animals) is “diminished”.
